Assay type in all cases: biochemical
For one experiment, the target named is CDK1/CyclinB (Homo sapiens (Human), UniProt P06493). As to the kind of experiment: CDK1/CyclinB kinase inhibitory activity (Caliper mobility shift). Particulars: read-out: CDK1/Cyclin B1 IC50.
For another experiment, the target named is CDK9/CyclinT1 (Homo sapiens (Human), UniProt P50750). As to the kind of experiment: CDK9/CyclinT1 kinase inhibitory activity (Caliper mobility shift). As to conditions: read-out: CDK9/Cyclin T1 IC50.
Another experiment has as its target CDK2/CyclinE1 (Homo sapiens (Human), UniProt P24941). As to the kind of experiment: CDK2/CyclinE1 kinase inhibitory activity (Caliper mobility shift). As to conditions: read-out: CDK2/Cyclin El IC50.

pIC50: −log10 of the molar value. A value given as a limit tells only on which side of the number the result lay.

The source of these data is patent US20240166635A1, “AMINOHETEROARYL KINASE INHIBITORS” (Anrui Biomedical Technology (Guangzhou) Co.,Ltd., priority 2020, published 2024).

CDK1/CyclinB, sequence (P06493 whole entry): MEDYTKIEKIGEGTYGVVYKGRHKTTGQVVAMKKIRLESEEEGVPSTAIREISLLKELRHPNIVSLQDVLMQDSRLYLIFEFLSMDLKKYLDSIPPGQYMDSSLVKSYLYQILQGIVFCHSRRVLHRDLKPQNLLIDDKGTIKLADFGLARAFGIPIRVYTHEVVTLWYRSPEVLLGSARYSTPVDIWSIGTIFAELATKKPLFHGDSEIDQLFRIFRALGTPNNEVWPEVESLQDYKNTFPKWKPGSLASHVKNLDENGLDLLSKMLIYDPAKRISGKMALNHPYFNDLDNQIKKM
CDK1/CyclinB, sequence (P14635 whole entry partner): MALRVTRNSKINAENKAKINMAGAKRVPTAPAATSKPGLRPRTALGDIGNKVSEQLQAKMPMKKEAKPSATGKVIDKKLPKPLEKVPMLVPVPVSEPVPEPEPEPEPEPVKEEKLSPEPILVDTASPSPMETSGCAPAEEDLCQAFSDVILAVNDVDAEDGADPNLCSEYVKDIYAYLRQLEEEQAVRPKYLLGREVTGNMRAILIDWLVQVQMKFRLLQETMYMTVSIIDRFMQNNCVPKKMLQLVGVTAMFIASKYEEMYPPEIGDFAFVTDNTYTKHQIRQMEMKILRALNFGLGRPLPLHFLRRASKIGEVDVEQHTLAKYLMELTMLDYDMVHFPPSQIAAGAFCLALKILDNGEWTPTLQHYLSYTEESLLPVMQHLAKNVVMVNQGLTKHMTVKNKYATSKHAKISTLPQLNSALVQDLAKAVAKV
CDK9/CyclinT1, sequence (P50750 whole entry): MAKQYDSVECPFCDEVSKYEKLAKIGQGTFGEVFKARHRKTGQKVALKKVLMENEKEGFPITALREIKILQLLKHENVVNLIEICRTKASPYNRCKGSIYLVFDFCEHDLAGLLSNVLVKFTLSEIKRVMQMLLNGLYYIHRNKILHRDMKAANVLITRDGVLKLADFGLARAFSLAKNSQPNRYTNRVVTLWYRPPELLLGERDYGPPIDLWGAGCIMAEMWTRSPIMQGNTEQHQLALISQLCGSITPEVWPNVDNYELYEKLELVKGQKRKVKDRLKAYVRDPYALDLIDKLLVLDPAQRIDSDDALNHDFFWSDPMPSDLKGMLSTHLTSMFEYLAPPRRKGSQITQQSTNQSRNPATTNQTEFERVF
CDK9/CyclinT1, sequence (O60563 whole entry partner): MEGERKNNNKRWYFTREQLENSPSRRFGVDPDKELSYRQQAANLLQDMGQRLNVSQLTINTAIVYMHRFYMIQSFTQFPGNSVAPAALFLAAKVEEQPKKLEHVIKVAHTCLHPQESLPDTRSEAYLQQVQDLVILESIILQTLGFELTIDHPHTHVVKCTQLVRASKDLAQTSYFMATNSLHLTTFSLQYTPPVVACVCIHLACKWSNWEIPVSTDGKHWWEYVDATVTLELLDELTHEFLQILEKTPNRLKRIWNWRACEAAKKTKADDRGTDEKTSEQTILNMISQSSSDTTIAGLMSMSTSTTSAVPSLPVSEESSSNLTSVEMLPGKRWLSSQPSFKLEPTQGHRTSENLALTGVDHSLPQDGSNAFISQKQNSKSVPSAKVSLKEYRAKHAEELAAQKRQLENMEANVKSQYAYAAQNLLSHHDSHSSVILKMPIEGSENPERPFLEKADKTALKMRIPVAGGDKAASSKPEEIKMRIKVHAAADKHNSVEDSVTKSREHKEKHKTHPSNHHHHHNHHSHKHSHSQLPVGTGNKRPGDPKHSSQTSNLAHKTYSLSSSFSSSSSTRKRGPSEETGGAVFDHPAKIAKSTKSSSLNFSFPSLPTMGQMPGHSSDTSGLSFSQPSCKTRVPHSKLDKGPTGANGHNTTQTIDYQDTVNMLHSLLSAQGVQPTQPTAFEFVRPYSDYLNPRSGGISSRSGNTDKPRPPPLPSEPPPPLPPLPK

Turning to `C[C@]1(O)CCC[C@H]1Oc1nc(NC2CCN(S(C)(=O)=O)CC2)ncc1C#N` (relative stereo) [Example 3a, cis-4-((2-hydroxy-2-methylcyclopentyl)oxy)-2-((1-(methylsulfonyl)piperidin-4-yl)amino)pyrimidine-5-carbonitrile], the pIC50 is 6.00 to 7.00 at CDK1/CyclinB, not above 6.00 on CDK9/CyclinT1 and 7.00 to 8.00 at CDK2/CyclinE1.

With `N#Cc1cnc(Nc2ccc(S(N)(=O)=O)cc2)nc1O[C@@H]1CCCC[C@@H]1O` (single isomer, unassigned) [Example 2b, cis-4-((5-cyano-4-((2-hydroxycyclohexyl)oxy)pyrimidin-2-yl)amino)benzenesulfonamide], the pIC50 at CDK1/CyclinB is 6.00 to 7.00; at CDK9/CyclinT1, not above 6.00; at CDK2/CyclinE1 it was 7.00 to 8.00.

With `N#Cc1cnc(Nc2ccc(S(N)(=O)=O)cc2)nc1OC1CCCC1CO` (single isomer, unassigned) [Example 18a], the pIC50 was 6.00 to 7.00 on CDK1/CyclinB, 6.00 to 7.00 at CDK9/CyclinT1 and 7.00 to 8.00 at CDK2/CyclinE1.

On to `N#Cc1cnc(Nc2ccc(S(N)(=O)=O)cc2)nc1OC1CCCC1CO` (single isomer, unassigned) [Example 18b], for which the figures for the pIC50 on CDK1/CyclinB, on CDK9/CyclinT1 and on CDK2/CyclinE1 were 7.00 to 8.00, 6.00 to 7.00 and more than 8.00, respectively.

Take `N#Cc1cnc(Nc2ccc(S(N)(=O)=O)cc2)nc1OCC1CCCC1O` (single isomer, unassigned) [Example 19a]: the pIC50 at CDK1/CyclinB was 7.00 to 8.00; on CDK9/CyclinT1, 6.00 to 7.00; on CDK2/CyclinE1, more than 8.00.

For the compound `N#Cc1cnc(Nc2ccc(S(N)(=O)=O)cc2)nc1OCC1CCCC1O` (single isomer, unassigned) [Example 19b], the figures for the pIC50 at CDK1/CyclinB, on CDK9/CyclinT1 and at CDK2/CyclinE1 were 7.00 to 8.00, 6.00 to 7.00 and more than 8.00, respectively.

`N#Cc1cnc(Nc2ccc(S(N)(=O)=O)cc2)nc1OC1CCCC(O)C1` (single isomer, unassigned) [Example 21a]: the pIC50 at CDK1/CyclinB was 6.00 to 7.00; on CDK9/CyclinT1, 6.00 to 7.00; at CDK2/CyclinE1, more than 8.00.

Turning to `N#Cc1cnc(Nc2ccc(S(N)(=O)=O)cc2)nc1OC1CCCC(O)C1` (single isomer, unassigned) [Example 21b], the pIC50 on CDK1/CyclinB was 6.00 to 7.00; on CDK9/CyclinT1 it was 6.00 to 7.00; at CDK2/CyclinE1, 7.00 to 8.00.

Consider `N#Cc1cnc(Nc2ccc(S(N)(=O)=O)cc2)nc1OC1CCCCCC1O` (single isomer, unassigned) [Example 22b], for which the pIC50 at CDK1/CyclinB was 7.00 to 8.00; on CDK9/CyclinT1 it was 6.00 to 7.00; on CDK2/CyclinE1 it was more than 8.00.

For `CC1(O)CCCC1Oc1nc(Nc2ccc(S(N)(=O)=O)cc2)ncc1C#N` (single isomer, unassigned) [Example 23b], the pIC50 was 6.00 to 7.00 at CDK1/CyclinB, 6.00 to 7.00 on CDK9/CyclinT1 and 7.00 to 8.00 on CDK2/CyclinE1.

As for `CC1(O)CCCCC1Oc1nc(Nc2ccc(S(N)(=O)=O)cc2)ncc1C#N` (single isomer, unassigned) [Example 24b], the pIC50 at CDK1/CyclinB was 7.00 to 8.00; on CDK9/CyclinT1, 6.00 to 7.00; at CDK2/CyclinE1, 7.00 to 8.00.

For `CC(C)NS(=O)(=O)c1ccc(Nc2ncc(C#N)c(OC3CCC(O)C3)n2)cc1` (single isomer, unassigned) [Example 29a], the pIC50 at CDK1/CyclinB is 6.00 to 7.00; on CDK9/CyclinT1, 6.00 to 7.00; at CDK2/CyclinE1, more than 8.00.

With `CC(C)NS(=O)(=O)c1ccc(Nc2ncc(C#N)c(OC3CCC(O)C3)n2)cc1` (single isomer, unassigned) [Example 29b], the pIC50 on CDK1/CyclinB is 7.00 to 8.00; at CDK9/CyclinT1 it was 6.00 to 7.00; on CDK2/CyclinE1 it was more than 8.00.

For the compound `CC(C)NS(=O)(=O)c1ccc(Nc2ncc(C#N)c(OC3CCCCC3O)n2)cc1` (single isomer, unassigned) [Example 30a], the pIC50 on CDK1/CyclinB was 7.00 to 8.00; at CDK9/CyclinT1, 6.00 to 7.00; at CDK2/CyclinE1, more than 8.00.

With `CC(C)NS(=O)(=O)c1ccc(Nc2ncc(C#N)c(OC3CCCCC3O)n2)cc1` (single isomer, unassigned) [Example 30b], the pIC50 at CDK1/CyclinB is 6.00 to 7.00; on CDK9/CyclinT1 it was not above 6.00; on CDK2/CyclinE1, 7.00 to 8.00.

As for `N#Cc1cnc(Nc2ccc(S(=O)(=O)NC3CC(F)C3)cc2)nc1OC1CCCCC1O` (single isomer, unassigned) [Example 31b], the results for the pIC50 on CDK1/CyclinB, at CDK9/CyclinT1 and on CDK2/CyclinE1 were 6.00 to 7.00, not above 6.00 and 7.00 to 8.00, respectively.

As for `N#Cc1cnc(Nc2ccc(S(=O)(=O)NC3CC(F)(F)C3)cc2)nc1OC1CCCCC1O` (single isomer, unassigned) [Example 32b], the pIC50 was 6.00 to 7.00 at CDK1/CyclinB, not above 6.00 on CDK9/CyclinT1 and 7.00 to 8.00 at CDK2/CyclinE1.

As to `[2H]C([2H])([2H])NS(=O)(=O)c1ccc(Nc2ncc(C#N)c(OC3CCCOCC3)n2)cc1` (single isomer, unassigned) [Example 33b], the pIC50 on CDK1/CyclinB is 6.00 to 7.00; on CDK9/CyclinT1, not above 6.00; on CDK2/CyclinE1, more than 8.00.

For `CNS(=O)(=O)c1ccc(Nc2ncc(C#N)c(OC3CCCC3(C)O)n2)cc1` (single isomer, unassigned) [Example 34b], the pIC50 on CDK1/CyclinB is 6.00 to 7.00; on CDK9/CyclinT1, not above 6.00; on CDK2/CyclinE1, more than 8.00.

Regarding `CC(C)NS(=O)(=O)c1ccc(Nc2ncc(C#N)c(OC3CCCC3(C)O)n2)cc1` (single isomer, unassigned) [Example 35b], the pIC50 at CDK1/CyclinB is 7.00 to 8.00; at CDK9/CyclinT1, 6.00 to 7.00; on CDK2/CyclinE1, more than 8.00.

With `CCS(=O)(=O)N1CCC(Nc2ncc(C#N)c(OC3CCCC3(C)O)n2)CC1` (single isomer, unassigned) [Example 36a], the pIC50 at CDK1/CyclinB is 6.00 to 7.00; at CDK9/CyclinT1, not above 6.00; at CDK2/CyclinE1, 7.00 to 8.00.

With `CC1(O)CCCC1Oc1nc(NC2CCN(S(=O)(=O)CF)CC2)ncc1C#N` (single isomer, unassigned) [Example 37b], the pIC50 at CDK1/CyclinB was 6.00 to 7.00; at CDK9/CyclinT1 it was not above 6.00; on CDK2/CyclinE1, 7.00 to 8.00.

`CC1(O)CCCC1Oc1nc(NC2CCN(S(=O)(=O)CC3CC3)CC2)ncc1C#N` (single isomer, unassigned) [Example 38b]: the pIC50 is 6.00 to 7.00 on CDK1/CyclinB, not above 6.00 at CDK9/CyclinT1 and 7.00 to 8.00 on CDK2/CyclinE1.

With `CC(C)CS(=O)(=O)N1CCC(Nc2ncc(C#N)c(OC3CCCC3(C)O)n2)CC1` (single isomer, unassigned) [Example 39b], the pIC50 at CDK1/CyclinB is 6.00 to 7.00; on CDK9/CyclinT1, not above 6.00; on CDK2/CyclinE1, 7.00 to 8.00.

In the case of `NS(=O)(=O)c1ccc(Nc2ncc(C(F)(F)F)c(O[C@@H]3CCC[C@@H]3O)n2)cc1` (single isomer, unassigned) [Example 99b, cis-4-((4-((2-hydroxycyclopentyl)oxy)-5-(trifluoromethyl)pyrimidin-2-yl)amino)benzenesulfonamide], the results for the pIC50 at CDK1/CyclinB, on CDK9/CyclinT1 and on CDK2/CyclinE1 were 7.00 to 8.00, 6.00 to 7.00 and more than 8.00, respectively.

As for `CC(C)NS(=O)(=O)c1ccc(Nc2ncc(C(F)(F)F)c(OC3CCCC3O)n2)cc1` (single isomer, unassigned) [Example 106b], the pIC50 on CDK1/CyclinB is 7.00 to 8.00; at CDK9/CyclinT1, 6.00 to 7.00; on CDK2/CyclinE1, more than 8.00.

`O=S(=O)(NC1CC1)c1ccc(Nc2ncc(C(F)(F)F)c(OC3CCCC3O)n2)cc1` (single isomer, unassigned) [Example 107b]: the pIC50 on CDK1/CyclinB was 7.00 to 8.00; on CDK9/CyclinT1, 6.00 to 7.00; at CDK2/CyclinE1, more than 8.00.

Take `[2H]C([2H])([2H])NS(=O)(=O)c1ccc(Nc2ncc(C(F)(F)F)c(OC3CCCC3O)n2)cc1` (single isomer, unassigned) [Example 109b]: the values for the pIC50 at CDK1/CyclinB, on CDK9/CyclinT1 and at CDK2/CyclinE1 were 6.00 to 7.00, 6.00 to 7.00 and 7.00 to 8.00, respectively.

With `[2H]C1([2H])CC(O)C(Oc2nc(Nc3ccc(S(=O)(=O)NC([2H])([2H])[2H])cc3)ncc2C(F)(F)F)C1` (single isomer, unassigned) [Example 110b], the values for the pIC50 at CDK1/CyclinB, at CDK9/CyclinT1 and at CDK2/CyclinE1 were 6.00 to 7.00, 6.00 to 7.00 and more than 8.00, respectively.

As for `NS(=O)(=O)c1ccc(Nc2ncc(C(F)(F)F)c(OC3CCCCC3O)n2)cc1` (single isomer, unassigned) [Example 111a], the pIC50 at CDK1/CyclinB was 6.00 to 7.00; on CDK9/CyclinT1, 6.00 to 7.00; at CDK2/CyclinE1, more than 8.00.

Take `CC1CCCC(O)C1Oc1nc(Nc2ccc(S(N)(=O)=O)cc2)ncc1C(F)(F)F` (single isomer, unassigned) [Example 112b]: the results for the pIC50 on CDK1/CyclinB, at CDK9/CyclinT1 and on CDK2/CyclinE1 were 6.00 to 7.00, 6.00 to 7.00 and more than 8.00, respectively.

On to `NS(=O)(=O)c1ccc(Nc2ncc(C(F)(F)F)c(O[C@H]3[C@@H]4CC[C@@H](C4)[C@H]3O)n2)cc1` (single isomer, unassigned) [Example 113a], for which the results for the pIC50 on CDK1/CyclinB, on CDK9/CyclinT1 and at CDK2/CyclinE1 were 6.00 to 7.00, 6.00 to 7.00 and more than 8.00, respectively.

For `NS(=O)(=O)c1ccc(Nc2ncc(C(F)(F)F)c(O[C@H]3[C@@H]4CC[C@@H](C4)[C@H]3O)n2)cc1` (single isomer, unassigned) [Example 113b], the pIC50 on CDK1/CyclinB is 7.00 to 8.00; at CDK9/CyclinT1 it was 6.00 to 7.00; on CDK2/CyclinE1, more than 8.00.

In the case of `NS(=O)(=O)c1ccc(Nc2ncc(C(F)(F)F)c(OC3CCOCC3O)n2)cc1` (single isomer, unassigned) [Example 114b], the pIC50 on CDK1/CyclinB was 6.00 to 7.00; on CDK9/CyclinT1, 6.00 to 7.00; at CDK2/CyclinE1 it was 7.00 to 8.00.

Regarding `NS(=O)(=O)c1ccc(Nc2ncc(C(F)(F)F)c(OC3COCCC3O)n2)cc1` (single isomer, unassigned) [Example 115b], the figures for the pIC50 at CDK1/CyclinB, at CDK9/CyclinT1 and at CDK2/CyclinE1 were 6.00 to 7.00, 6.00 to 7.00 and 7.00 to 8.00, respectively.

Consider `CNS(=O)(=O)c1ccc(Nc2ncc(C(F)(F)F)c(OC3CCOCC3O)n2)cc1` (single isomer, unassigned) [Example 116b], for which the pIC50 at CDK1/CyclinB is 6.00 to 7.00; at CDK9/CyclinT1, not above 6.00; at CDK2/CyclinE1, 7.00 to 8.00.

For the compound `[2H]C([2H])([2H])NS(=O)(=O)c1ccc(Nc2ncc(C(F)(F)F)c(OC3COCCC3O)n2)cc1` (single isomer, unassigned) [Example 117b], the pIC50 was 6.00 to 7.00 on CDK1/CyclinB, not above 6.00 on CDK9/CyclinT1 and 7.00 to 8.00 at CDK2/CyclinE1.
